Legend:
[1] = system: Klebsiella pneumoniae expressing VIM-1 (IHMA599644); assay type: cell-based; conditions: with imipenem 1 μg/ml, 95% inhibition of bacterial growth; for Klebsiella pneumoniae MITC95: VIM-1 (IHMA599644)
How it was run: (§1)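 Restoration of imipenem susceptibility (1 μg/ml imipenem) was judged by absorbance after 22–24 h at 35° C. Test compound was added to bacteria suspended 1:100 in 1.1× CAMHB from overnight blood-agar cultures.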

[2] = system: Escherichia coli expressing NDM-1 (CLB30005, CLB30016); assay type: cell-based; conditions: with imipenem 1 μg/ml, 95% inhibition of bacterial growth; for Escherichia coli MITC95: NDM-1 (CLB30016)
How it was run: as §1

[3] = system: Serratia marcescens expressing IMP-1 (CL5741); assay type: cell-based; conditions: with imipenem 1 μg/ml, 95% inhibition of bacterial growth; for Serratia marcescens MITC95: IMP-1 (CL5741)
How it was run: as §1

[4] = system: P. aeruginosa expressing IMP-1, efflux− (MB9799); test: Efflux: concentration of MBL inhibitor which restores susceptibility to imipenem; assay type: cell-based, Pseudomonas aeruginosa; conditions: imipenem at 2 μg/mL, in the presence of a class A, C, D serine β-lactamase inhibitor closely related to relebactam
Excerpt: (§2) The strain background is Pseudomonas aeruginosa PAO1.

[5] = system: P. aeruginosa expressing IMP-1, efflux+ (MB9798); assay type: cell-based, Pseudomonas aeruginosa; conditions: for P. aeruginosa expressing IMP-1, efflux+ (MB9798) MITC95: imipenem at 2 μg/mL, in the presence of a class A, C, D serine β-lactamase inhibitor closely related to relebactam; for Efflux ratio: ratio MITC95 PA_9798/MITC95 PA_9799
Excerpt: as §2

[6] = target: NDM-1 (Klebsiella pneumoniae, UniProt C7C422); test: biochemical; assay type: biochemical; conditions: CCF2-FA substrate, 2 hours at 25° C; read-out: NDM-1 IC50
Chain of NDM-1 (C7C422 whole entry, looked up, species assumed): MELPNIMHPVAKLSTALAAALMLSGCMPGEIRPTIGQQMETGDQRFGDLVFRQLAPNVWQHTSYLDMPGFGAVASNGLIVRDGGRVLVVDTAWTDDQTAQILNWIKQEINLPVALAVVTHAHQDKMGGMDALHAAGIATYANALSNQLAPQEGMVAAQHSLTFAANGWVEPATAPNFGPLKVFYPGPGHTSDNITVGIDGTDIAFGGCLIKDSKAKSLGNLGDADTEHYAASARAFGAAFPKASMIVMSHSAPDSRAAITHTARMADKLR
How it was run: (§3)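 Enzyme activity was measured by fluorescence using CCF2-FA, a cephalosporin-linked 7-hydroxycoumarin/fluorescein substrate, with inhibitor, metallo-β-lactamase and substrate incubated together for 2 hours at 25° C. IC50 came from a 4-parameter fit of inhibition versus log inhibitor concentration.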

[7] = target: IMP-1 (Serratia marcescens, UniProt P52699); test: biochemical; assay type: biochemical; conditions: CCF2-FA substrate, 2 hours at 25° C; read-out: IMP-1 IC50
Chain of IMP-1 (P52699 whole entry, looked up, species assumed): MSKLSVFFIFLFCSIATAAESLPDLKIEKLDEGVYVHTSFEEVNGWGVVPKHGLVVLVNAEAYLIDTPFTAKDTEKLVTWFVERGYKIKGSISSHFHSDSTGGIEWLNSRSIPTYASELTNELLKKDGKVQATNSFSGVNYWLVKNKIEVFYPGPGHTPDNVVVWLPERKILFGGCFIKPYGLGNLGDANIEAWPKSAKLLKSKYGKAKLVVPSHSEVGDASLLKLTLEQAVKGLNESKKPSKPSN
How it was run: as §3

[8] = target: VIM-1 (Pseudomonas aeruginosa (strain ATCC 15692 / DSM 22644 / CIP 104116 / JCM 14847 / LMG 12228 / 1C / PRS 101 / PAO1), UniProt A0A0F7KYQ8); test: biochemical; conditions: CCF2-FA substrate, 2 hours at 25° C
How it was run: as §3

| Compound | Klebsiella pneumoniae expressing VIM-1 (IHMA599644) MITC95 [1] | Escherichia coli expressing NDM-1 (CLB30016) MITC95 [2] | Serratia marcescens expressing IMP-1 (CL5741) MITC95 [3] | P. aeruginosa expressing IMP-1, efflux− (MB9799) MITC95 [4] | P. aeruginosa expressing IMP-1, efflux+ (MB9798) MITC95 [5] | Efflux ratio [5] | IC50 [6] | IC50 [7] | IC50 [8] | Klebsiella pneumoniae MITC95 [1] | Escherichia coli MITC95 [2] | Serratia marcescens MITC95 [3] |
| --- | --- | --- | --- | --- | --- | --- | --- | --- | --- | --- | --- | --- |
| Nc1nc2cc(-c3ccc(S(=O)(=O)C4CNC4)c(S(N)(=O)=O)c3-c3nn[nH]n3)ccc2o1 [Example 31, 3-(2-aminobenzo[d]oxazol-5-yl)-6-(azetidin-3-ylsulfonyl)-2-(2H-tetrazol-5-yl)benzenesulfonamide] | 3.125 µM | 1.563 µM | 1.563 µM | 1.563 µM | 6.25 µM | 4.00 | 0.337 nM | 1.37 nM | 0.373 nM |  |  |  |
| NCCS(=O)(=O)c1ccc(-c2cccc3nc(N)sc23)c(-c2nn[nH]n2)c1S(N)(=O)=O [Example 78, 3-(2-aminobenzo[d]thiazol-7-yl)-6-(2-aminoethylsulfonyl)-2-(2H-tetrazol-5-yl)benzenesulfonamide] | 2.344 µM | 0.7813 µM | 1.172 µM | 0.7813 µM | 1.172 µM | 1.50 | 0.0576 nM | 0.441 nM | 0.136 nM |  |  |  |
| NCCS(=O)(=O)c1ccc(-c2ccccc2NC(=O)CN)c(-c2nn[nH]n2)c1S(N)(=O)=O [Example 340, 2-Amino-N-(4′-((2-aminoethyl)sulfonyl)-3′-sulfamoyl-2′-(2H-tetrazol-5-yl)-[1,1′-biphenyl]-2-yl)acetamide] |  |  |  | 3.125 µM | 12.5 µM | 4.00 | 24.8 nM | 107 nM | 8.16 nM | 3.125 µM | 1.563 µM | 3.125 µM |
| NS(=O)(=O)c1c(S(=O)(=O)CC2CNC2)ccc([C@H]2CC[C@@H](N)CC2)c1-c1nnn[nH]1 [Example 205, 3-((1s, 4s)-4-aminocyclohexyl)-6-((azetidin-3-ylmethyl)sulfonyl)-2-(1H-tetrazol-5-yl)benzenesulfonamide] | 3.125 µM | 1.563 µM | 3.125 µM | 3.125 µM | 6.25 µM | 2.00 | 44.6 nM | 82.5 nM | 6.64 nM |  |  |  |
| NCCS(=O)(=O)c1ccc(-c2ccc3c(c2)CC(=O)N3)c(-c2nnn[nH]2)c1S(N)(=O)=O.O=C(O)C(F)(F)F [Example 157, 2-((4-(2-oxoindolin-5-yl)-2-sulfamoyl-3-(1H-tetrazol-5-yl)phenyl)sulfonyl)ethanaminium 2,2,2-trifluoroacetate] | 3.125 µM | 1.563 µM | 1.563 µM | 0.7813 µM | 12.5 µM | 16.00 | 1.94 nM | 1.89 nM | 0.295 nM |  |  |  |
| Nc1nc2cccc(-c3ccc(S(=O)(=O)[C@@H]4CCNC4)c(S(N)(=O)=O)c3-c3nn[nH]n3)c2[nH]1 [Example 181, 3-(2-amino-3H-benzo[d]imidazol-4-yl)-6-((R)-pyrrolidin-3-ylsulfonyl)-2-(2H-tetrazol-5-yl)benzenesulfonamide] | 0.8542 µM | 0.3203 µM | 0.6875 µM | 0.6875 µM | 0.6875 µM | 1.00 | 0.149 nM | 0.807 nM | 0.42 nM |  |  |  |
| Nc1nc2c(-c3ccc(S(=O)(=O)C4CNC4)c(S(N)(=O)=O)c3-c3nn[nH]n3)cccc2o1 [Example 30, 3-(2-aminobenzo[d]oxazol-4-yl)-6-(azetidin-3-ylsulfonyl)-2-(2H-tetrazol-5-yl)benzenesulfonamide] | 3.125 µM | 0.7813 µM | 1.563 µM | 1.563 µM | 1.563 µM | 1.00 | 0.0846 nM | 0.585 nM | 0.409 nM |  |  |  |
| Nc1n[nH]c2cccc(-c3ccc(S(=O)(=O)C4CNC4)c(S(N)(=O)=O)c3-c3nnn[nH]3)c12 [Example 263, 3-(3-amino-1H-indazol-4-yl)-6-(azetidin-3-ylsulfonyl)-2-(1H-tetrazol-5-yl) benzenesulfonamide] |  |  |  | 3.125 µM | 6.25 µM | 2.00 | 0.431 nM | 4.59 nM | 0.594 nM | 6.25 µM | 1.563 µM | 1.563 µM |
| Cn1c(N)nc2c(-c3ccc(S(=O)(=O)C4CNC4)c(S(N)(=O)=O)c3-c3nn[nH]n3)cccc21 [Example 22, 3-(2-amino-1-methyl-1H-benzo[d]imidazol-4-yl)-6-(azetidin-3-ylsulfonyl)-2-(2H-tetrazol-5-yl)benzenesulfonamide] | 1.563 µM | 0.3906 µM | 0.7813 µM | 0.7813 µM | 1.563 µM | 2.00 | 0.164 nM | 0.432 nM | 0.213 nM |  |  |  |
| NCCS(=O)(=O)c1ccc(-c2cccc3[nH]c([C@H](N)CO)nc23)c(-c2nn[nH]n2)c1S(N)(=O)=O [Example 329, (S)-3-(2-(1-amino-2-hydroxyethyl)-1H-benzo[d]imidazol-4-yl)-6-((2-aminoethyl)sulfonyl)-2-(2H-tetrazol-5-yl) benzenesulfonamide] |  |  |  | 1.563 µM | 3.125 µM | 2.00 | 0.404 nM | 1.93 nM | 0.282 nM | 6.25 µM | 1.563 µM | 3.125 µM |
| Cc1n[nH]c2ccc(-c3ccc(S(=O)(=O)C4CNC4)c(S(N)(=O)=O)c3-c3nnn[nH]3)cc12.O=C(O)C(F)(F)F [Example 126, 3-((4-(3-methyl-1H-indazol-5-yl)-2-sulfamoyl-3-(1H-tetrazol-5-yl)phenyl)sulfonyl)azetidin-1-ium 2,2,2-trifluoroacetate] | 6.25 µM | 3.125 µM | 6.25 µM | 1.563 µM | 12.5 µM | 8.00 | 0.428 nM | 0.715 nM | 0.477 nM |  |  |  |
